# Source: patent US20180311276A1, “Method and Apparatus for Treating Oral Disease in Animals” (priority 2015, published 2018)
# Legend:
# thyroid level (T4) = thyroid level (T4) in the Example 1 clinical trial; assay type: in vivo, dogs; settings: 0.5 or 1.0 microgram/mL in drinking water, 28 days
# Description: Each dog was weighed, blood drawn for determination of thyroid level and a qualitative assessment was made for halitosis using a 0, 1, 2, 3, 4 and 5 scale with 0 indicating no discernible “doggie breath produced by hydrogen sulfide H2S” and 5 being very noxious, strong odor. Dogs were anesthetized, marginal tooth-gum line measurements were taken for proscribed teeth (required for veterinary oral health counsel certification of efficacy at reducing plaque in dogs found at www.VOHC.com) and dog teeth were cleaned to remove all plaque and tarter. All dogs were given either drug or placebo each morning for 28 days. Journal entries were kept for each dog to monitor for compliance, observations regarding dog drinking behavior and comments regarding dog breath/odor. Once each dog drank all the water i.e., 1000 mL the water bowl was filled with fresh water. […] At the end of the study i.e., 28 days each dog was sedated, breath was evaluated and teeth were stained with disclosing solution that is proven to stain plaque red. The attending veterinarian who measured the initial marginal tooth-gum line measured all the proscribed teeth using the published technique (Scherl D S, Coffman L, et al. Validation of a New Dental Plaque Quantification Method in Dogs. J Vet Dent 24(1); 14-20, 2007). All values from all 20 dogs were recorded and whole mouth scores were calculated.
# [1] = tested on: halitosis (volatile sulfur compounds, hydrogen sulfide); experiment: halitosis secondary end point: Halimeter VSC readings and qualitative odor 0-5 scale (Example 1); assay type: in vivo, dogs
# Description: Each dog was weighed, blood drawn for determination of thyroid level and a qualitative assessment was made for halitosis using a 0, 1, 2, 3, 4 and 5 scale with 0 indicating no discernible “doggie breath produced by hydrogen sulfide H2S” and 5 being very noxious, strong odor. Dogs were anesthetized, marginal tooth-gum line measurements were taken for proscribed teeth (required for veterinary oral health counsel certification of efficacy at reducing plaque in dogs found at www.VOHC.com) and dog teeth were cleaned to remove all plaque and tarter. All dogs were given either drug or placebo each morning for 28 days. Journal entries were kept for each dog to monitor for compliance, observations regarding dog drinking behavior and comments regarding dog breath/odor. Once each dog drank all the water i.e., 1000 mL the water bowl was filled with fresh water. The following day all the remaining water was discarded and the clinical trial sample was added to the water bowl. At the end of the study i.e., 28 days each dog was sedated, breath was evaluated and teeth were stained with disclosing solution that is proven to stain plaque red. The attending veterinarian who measured the initial marginal tooth-gum line measured all the proscribed teeth using the published technique (Scherl D S, Coffman L, et al. Validation of a New Dental Plaque Quantification Method in Dogs. J Vet Dent 24(1); 14-20, 2007). All values from all 20 dogs were recorded and whole mouth scores were calculated.
# The halitosis secondary end point was more complicated since the attempt was made to use an Interscan Corporation Halimeter® that quantitatively measures volatile sulfur compounds (VSC) in the oral cavity. The Halimeter was designed for use by dentists and humans. One of the requirements to obtain reliable readings is for the conscious human subject to blow into a straw connected into the Halimeter. The problem encountered with dogs while under anesthesia is obtaining a valid reading since they are unable to “blow” into the straw. Early dog readings were erratic and turned out to be unreliable. […]
# Neisseria spp. = experiment: use dilution experiments (MicroChem Laboratories); assay type: cell-based; settings: for reduction in microbial concentration / kill: 1 minute time point
# Description: (§1) The inventor evaluated a variety elemental iodine concentrations e.g., 0.5, 1.0, 2.0, 3, 5, 10, 15 and 20 micrograms/mL and discovered that dogs preferred drinking water with elemental iodine below 2 micrograms/mL. We evaluated the ability of elemental iodine to kill oral bacteria at a concentration of 2 micrograms/mL responsible for plaque formation and discovered that elemental iodine was effective at this dose i.e., microbial kill >3 logs/min. We evaluated lower concentrations of elemental iodine e.g., 0.05, 0.1 and 0.5 micrograms/mL. […] We hypothesized that molecular iodine concentrations below 0.5 micrograms/mL may not be not effective in killing oral bacteria responsible for plaque formation. We confirmed this assumption by performing microbial analysis. The inventor sent samples of two part preparations e.g., 1 vial with water and a second vial with iodine in 100% ethyl alcohol. These were combined before analysis so that the final concentrations were 0.05, 0.1, 0.5, 1.0, 2.0 and 5.0 micrograms/mL. The test organism was a known plaque-producing bacterium i.e., Neisseria spp. A contract research laboratory in Texas i.e., MicroChem Laboratories performed the use dilution experiments.
# thyroid hormone levels = thyroid hormone levels in the two shelter clinical trials; assay type: in vivo, dogs; settings: iodine added to dog drinking water
# Procedure: (§2) Plaque formation leads to gingivitis and periodontal disease and often progresses to systemic disease and death in dogs. Clinical trial 1 was conducted at a humane shelter with all dogs enclosed in kennels using a manually added drug vs. placebo. Subsequently, Clinical Trial 2 was conducted at a humane shelter with all dogs enclosed in kennels but in this case the iodine vs placebo was administered via an automated system.
# Furthermore, neither dog weight or age affected the plaque prevention effect. Finally, the iodine added to dog drinking water had no effect on dog thyroid hormone levels.
# [2] = saturation of absolute alcohol with molecular iodine; assay type: physicochemical
# Description: One embodiment of the present invention features a carrier liquid ethanol. The ethanol is preferably devoid of water, as in absolute alcohol. As used herein, the term “absolute alcohol” refers to alcohol with no or limited water content as such term is used in a commercial context. One formulation molecular iodine having a concentration in absolute alcohol in the range of 0.1 to 1.0 Gm molecular iodine in 13 milliliters of absolute alcohol. Molecular iodine saturates absolute alcohol at a concentration of 1 Gm per 13 milliliters of absolute alcohol. A further embodiment of the present formulation features a molecular sieve particle of between 2 and 4 A which captures and adsorbs water.
# [3] = tested on: oral bacteria responsible for plaque formation; experiment: kill of oral bacteria responsible for plaque formation; assay type: cell-based; settings: 2 micrograms/mL
# Description: as §1
# plaque = experiment: double-blind, placebo controlled clinical trial in 20 adult dogs, whole mouth plaque scores (Example 1); assay type: in vivo; settings: 28 days
# Procedure: First, a double-blind, placebo controlled clinical trial was conducted using 20 adult dogs of mixed breed and weights. The dogs were randomly divided into two groups. […] Group 1 dogs were further divided into two groups of five dogs. Five received molecular iodine [I2] dissolved into 1000 mL water to a final concentration of 0.5 microgram/mL. The second group of five dogs received molecular iodine [I2] dissolved into 1000 mL water to a final concentration of 1.0 microgram/mL. The placebo group of 10 dogs received no iodine. […]
# Each dog was weighed, blood drawn for determination of thyroid level and a qualitative assessment was made for halitosis using a 0, 1, 2, 3, 4 and 5 scale with 0 indicating no discernible “doggie breath produced by hydrogen sulfide H2S” and 5 being very noxious, strong odor. […] At the end of the study i.e., 28 days each dog was sedated, breath was evaluated and teeth were stained with disclosing solution that is proven to stain plaque red. The attending veterinarian who measured the initial marginal tooth-gum line measured all the proscribed teeth using the published technique (Scherl D S, Coffman L, et al. Validation of a New Dental Plaque Quantification Method in Dogs. J Vet Dent 24(1); 14-20, 2007). All values from all 20 dogs were recorded and whole mouth scores were calculated.
# [4] = tested on: plaque formation on teeth; experiment: two double-blind, placebo-controlled clinical trials at a humane shelter, plaque prevention; assay type: in vivo, dogs
# Procedure: as §2
# We conducted two double-blind, placebo-controlled clinical trials using both 0.5 and 1.0 micrograms elemental iodine in water.
smiles,measurement,setting,value
II [molecular iodine],T4 levels after treatment,thyroid level (T4),remained within normal range
same,Halimeter VSC levels at the conclusion of the clinical trial,"[1]; 0-5 scale, 3 dogs of the iodine group, initial levels 4-5, not statistically significant",0-1
same,"qualitative odor, final","[1]; 0-5 scale, 5 iodine-treated dogs, initial smell 3-5",0-1
same,number of iodine-treated dogs with reduced oral smell or doggie breath or VSC/H2S,"[1]; of 10 iodine-treated dogs, 28 days",8
same,antimicrobial efficacy,Neisseria spp.; 0.05 micrograms/mL,no antimicrobial efficacy
same,antimicrobial efficacy,Neisseria spp.; 0.1 micrograms/mL,no antimicrobial efficacy
same,reduction in microbial concentration,Neisseria spp.; 0.5 microgram/mL,100 fold
same,reduction in microbial concentration,Neisseria spp.; 1.0 microgram/mL,1000 fold
same,kill,Neisseria spp.; 2.0 microgram/mL,> 4 logs
same,kill,Neisseria spp.; 5.0 microgram/mL,> 4 logs
same,killing oral bacteria,"Neisseria spp.; concentrations below 0.5 micrograms/mL, independent use dilution experiments",not effective
same,effect on dog thyroid hormone levels,thyroid hormone levels,no effect
same,concentration at which molecular iodine saturates absolute alcohol,[2],1 Gm per 13 milliliters of absolute alcohol
same,microbial kill,[3],> 3 logs/min
same,"whole mouth plaque scores from Day 0 to Day 28, Treated dogs compared to Placebo dogs","plaque; 0.5 or 1.0 microgram/mL in 1000 mL drinking water, once daily",statistically significant reduction
same,"mean plaque score, dogs receiving 0.5 microgram/mL versus 1.0 micrograms/mL",plaque; drinking water,no difference
same,plaque prevention,[4]; both 0.5 and 1.0 micrograms/mL water,proven effective
same,"prevention of plaque formation, 0.5 versus 1.0 micrograms/mL","[4]; dog drinking water, all dogs regardless of size or age",statistically significantly identical
